In US20240360157A1, “TYK2 INHIBITORS” (BIOGEN MA INC., priority 2021, published 2024):

How the values were obtained:
Assay type in all cases: biochemical
[1] = molecular target: human JAK1 catalytic kinase (JH1) domain (Homo sapiens (Human), UniProt P23458); assay: ADP-Glo Kinase Assay, recombinant JAK1 catalytic kinase (JH1) domain; settings: recombinant JH1 domain 4 nM, 35 μM ATP, JAK3-342 peptide, mean, read-out: JAK1 biochem IC50 (nM) Mean
Experimental: (§1) Compounds of the disclosure were assessed for their ability to inhibit TYK2, JAK1, JAK2, and JAK3 activity. The inhibitory properties of the compounds of the disclosure described herein can be evidenced by testing in any one of the following protocols.
(§2) The kinase activity of recombinantly generated catalytic kinase (also known as JH1) domain of human JAK1, JAK2, JAK3 and TYK2 were evaluated in a plate-based assay using the ADP-Glo™ Kinase Assay platform. Specifically, 4 nM of recombinant JAK1 kinase domain is used to phosphorylate 50 μM of a JAK3-342 (sequence ALVDGYFRLTT) peptide in the presence of 35 μM ATP. Catalytic activities of recombinant JAK2, JAK3 and TYK2 kinase domain (0.2, 0.3 and 2 nM, respectively) are evaluated by the phosphorylation status of the JAK3-974 (50 μM; sequence LPLDKDYYVVR) peptide with the addition of ATP (15, 4 and 10 μM, respectively). The reactions proceed for 100 minutes and the catalytic activity is quantified by first depleting the unused ATP, converting the hydrolyzed ADP into ATP to generate luminescence in a luciferase reaction; which is the basis of the ADP-Glo platform. Compounds are tested at either 10 μM or 1 μM top concentration, 11 points of 3-fold dilution. The data is normalized and the percent activity versus log concentration of compound is fitted with a 4-parameter logistic model to generate a curve and an IC50 value.

[2] = molecular target: human TYK2 catalytic kinase (JH1) domain (Homo sapiens (Human), UniProt P29597); assay: ADP-Glo Kinase Assay, recombinant TYK2 catalytic kinase (JH1) domain; settings: recombinant JH1 domain 2 nM, 10 μM ATP, JAK3-974 peptide, mean, read-out: TYK2 biochem IC50 (nM) Mean
human TYK2 catalytic kinase (JH1) domain, sequence (P29597 897-1176): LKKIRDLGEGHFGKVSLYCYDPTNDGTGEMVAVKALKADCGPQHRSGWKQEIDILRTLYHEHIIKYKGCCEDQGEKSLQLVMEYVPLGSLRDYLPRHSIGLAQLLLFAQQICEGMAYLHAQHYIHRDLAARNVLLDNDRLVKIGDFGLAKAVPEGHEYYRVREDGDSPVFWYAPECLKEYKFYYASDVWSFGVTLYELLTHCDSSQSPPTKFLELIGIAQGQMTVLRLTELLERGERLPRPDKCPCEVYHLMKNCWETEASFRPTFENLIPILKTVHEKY
Experimental: as §1, §2

[3] = molecular target: human JAK3 catalytic kinase (JH1) domain (Homo sapiens (Human), UniProt P52333); assay: ADP-Glo Kinase Assay, recombinant JAK3 catalytic kinase (JH1) domain; settings: recombinant JH1 domain 0.3 nM, 4 μM ATP, JAK3-974 peptide, mean, read-out: JAK3 biochem IC50 (nM) Mean
human JAK3 catalytic kinase (JH1) domain, sequence (P52333 822-1111): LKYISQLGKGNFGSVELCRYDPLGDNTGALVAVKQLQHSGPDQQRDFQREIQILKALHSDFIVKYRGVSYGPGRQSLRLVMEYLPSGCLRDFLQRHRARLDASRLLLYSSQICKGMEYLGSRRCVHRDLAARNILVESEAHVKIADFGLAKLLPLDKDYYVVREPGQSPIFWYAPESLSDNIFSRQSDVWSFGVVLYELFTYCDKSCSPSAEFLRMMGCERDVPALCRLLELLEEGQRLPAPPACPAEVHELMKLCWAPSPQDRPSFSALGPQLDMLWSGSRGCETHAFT
Experimental: as §1, §2

[4] = molecular target: human JAK2 catalytic kinase (JH1) domain (Homo sapiens (Human), UniProt O60674); assay: ADP-Glo Kinase Assay, recombinant JAK2 catalytic kinase (JH1) domain; settings: recombinant JH1 domain 0.2 nM, 15 μM ATP, JAK3-974 peptide, mean, read-out: JAK2 biochem IC50 (nM) Mean
human JAK2 catalytic kinase (JH1) domain, sequence (O60674 849-1124): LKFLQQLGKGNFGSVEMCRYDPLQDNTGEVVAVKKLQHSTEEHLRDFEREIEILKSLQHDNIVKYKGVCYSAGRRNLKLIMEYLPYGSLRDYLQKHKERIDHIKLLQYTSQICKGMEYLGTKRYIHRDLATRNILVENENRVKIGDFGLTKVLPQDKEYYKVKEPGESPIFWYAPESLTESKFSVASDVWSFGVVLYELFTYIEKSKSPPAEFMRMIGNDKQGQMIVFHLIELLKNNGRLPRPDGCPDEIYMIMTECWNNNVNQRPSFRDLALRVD
Experimental: as §1, §2

human JAK1 catalytic kinase (JH1) domain, sequence (P23458 875-1153): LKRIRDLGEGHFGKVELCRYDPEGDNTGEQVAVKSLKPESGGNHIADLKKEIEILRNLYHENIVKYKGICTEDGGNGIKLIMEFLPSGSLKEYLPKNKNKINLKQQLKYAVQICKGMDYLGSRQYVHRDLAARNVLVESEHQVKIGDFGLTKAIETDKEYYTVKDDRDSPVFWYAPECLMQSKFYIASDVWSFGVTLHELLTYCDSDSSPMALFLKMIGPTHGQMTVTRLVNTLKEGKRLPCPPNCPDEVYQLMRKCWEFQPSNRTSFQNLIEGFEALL

With O=C([C@H]1C[C@@H]1CO)N1C2CCC1CN(c1ncnn3cc(-c4cnn(C(F)F)c4)cc13)C2 (racemic) [Example 38, Rac-(3-(6-(1-(difluoromethyl)-1H-pyrazol-4-yl)pyrrolo[2,1-f][1,2,4]triazin-4-yl)-3,8-diazabicyclo[3.2.1]octan-8-yl)((1S,2S)-2-(hydroxymethyl)cyclopropyl)methanone] the IC50 [1] was 1640 nM, the IC50 [2] was 326 nM and the IC50 [3] was no less than 10000 nM. It also gave an IC50 [4] of 8260 nM.
O=C([C@H]1C[C@H]1F)N1C2CCC1CN(c1ncnn3cc(-c4cnn(C(F)F)c4)cc13)C2 (racemic) [Example 46, Rac-(3-(6-(1-(difluoromethyl)-1H-pyrazol-4-yl)pyrrolo[2,1-f][1,2,4]triazin-4-yl)-3,8-diazabicyclo[3.2.1]octan-8-yl)((1R,2R)-2-fluorocyclopropyl)methanone] was tested, and the IC50 [1] was 1230 nM, the IC50 [2] was 668 nM and the IC50 [3] was 6110 nM. It also gave an IC50 [4] of 9740 nM.
In the case of N#C[C@@H]1C[C@@H]1C(=O)N1C2CCC1CN(c1ncnn3cc(-c4cnn(C(F)F)c4)cc13)C2 (racemic) [Example 47, Rac-(1R,2S)-2-(3-(6-(1-(difluoromethyl)-1H-pyrazol-4-yl)pyrrolo[2,1-f][1,2,4]triazin-4-yl)-3,8-diazabicyclo[3.2.1]octane-8-carbonyl)cyclopropane-1-carbonitrile], the IC50 [1] is reported as 2530 nM, the IC50 [2] is reported as 783 nM and the IC50 [3] is reported as 6070 nM. It also gave an IC50 [4] of 8360 nM.
N#C[C@H]1C[C@@H]1C(=O)N1C2CCC1CN(c1ncnn3cc(-c4cnn(C(F)F)c4)cc13)C2 (racemic) [Example 53, Rac-(1S,2S)-2-(3-(6-(1-(difluoromethyl)-1H-pyrazol-4-yl)pyrrolo[2,1-f][1,2,4]triazin-4-yl)-3,8-diazabicyclo[3.2.1]octane-8-carbonyl)cyclopropane-1-carbonitrile] gave an IC50 [1] of 840 nM, an IC50 [2] of 166 nM and an IC50 [3] of 7370 nM. For the same compound, the IC50 [4] was 3380 nM.
With O=C([C@H]1C[C@@H]1F)N1C2CCC1CN(c1ncnn3cc(-c4cnn(C(F)F)c4)cc13)C2 (racemic) [Example 54, Rac-(3-(6-(1-(difluoromethyl)-1H-pyrazol-4-yl)pyrrolo[2,1-f][1,2,4]triazin-4-yl)-3,8-diazabicyclo[3.2.1]octan-8-yl)((1R,2S)-2-fluorocyclopropyl)methanone] the IC50 [1] was 645 nM, the IC50 [2] was 37.1 nM and the IC50 [3] was 4230 nM. It also gave an IC50 [4] of 1320 nM.
Compound Cn1cc(-c2cc3c(N4CC5CCC(C4)N5C(=O)[C@H]4C[C@H]4F)ncnn3c2)cn1 (racemic) [Example 60, Rac-((1R,2R)-2-fluorocyclopropyl)(3-(6-(1-methyl-1H-pyrazol-4-yl)pyrrolo[2,1-f][1,2,4]triazin-4-yl)-3,8-diazabicyclo[3.2.1]octan-8-yl)methanone] has an IC50 [1] of 1340 nM, an IC50 [2] of 563 nM and an IC50 [3] of 3080 nM. For the same compound, the IC50 [4] was 8090 nM.
Cn1cc(-c2cc3c(N4CC5CCC(C4)N5C(=O)[C@H]4C[C@@H]4F)ncnn3c2)cn1 (racemic) [Example 61, Rac-((1R,2S)-2-fluorocyclopropyl)(3-(6-(1-methyl-1H-pyrazol-4-yl)pyrrolo[2,1-f][1,2,4]triazin-4-yl)-3,8-diazabicyclo[3.2.1]octan-8-yl)methanone] showed an IC50 [1] of 992 nM, an IC50 [2] of 37.7 nM and an IC50 [3] of 3760 nM. The IC50 [4] was 1870 nM.
With Cn1cc(-c2cc3c(N4CC5CCC(C4)N5C(=O)[C@H]4C[C@H]4C#N)ncnn3c2)cn1 (racemic) [Example 65, Rac-(1R,2S)-2-(3-(6-(1-methyl-1H-pyrazol-4-yl)pyrrolo[2,1-f][1,2,4]triazin-4-yl)-3,8-diazabicyclo[3.2.1]octane-8-carbonyl)cyclopropane-1-carbonitrile] the IC50 [1] was 6090 nM, the IC50 [2] was 1210 nM and the IC50 [3] was 6790 nM. For the same compound, the IC50 [4] was 9840 nM.
